# Data: US20260062388A1, “POLYMORPHIC FORM OF NEPICASTAT ACID ADDITION SALT, PREPARATION METHOD THEREFOR AND USE THEREOF” (Jiangsu Yahong Meditech Co., Ltd., priority 2022, published 2026)
# Tests used:
# Format in all cases: physicochemical
# [1] = Competitive experiments of crystal forms I and II by adding crystal seeds (different water activities); conditions: room temperature, 3 days
# Procedure: To confirm stability of the crystal forms at room temperature, the following competitive experiments were conducted for the crystal forms I and II:
# The suspensions were stirred for 24 hours at room temperature, and all systems had solid residues. All systems were centrifuged and the supernatants were taken. […] The resulting suspensions were sonicated for 1 minute, stirred for 3 days at room temperature, and sampled to detect the crystal form.
# [2] = Dynamic vapor sorption (DVS) hygroscopicity
# Procedure: DVS curves are acquired on DVS Intrinsic from SMS (Surface Measurement Systems). • Testing temperature: 25° C. • Sample amount: 10-20 mg • dm/dt: 0.002%/min; • RH range: 0% RH-95% RH-0% RH • RH gradient: 10%
# [3] = Stability studies under relatively harsh conditions (40° C., 40° C./75% RH, 60° C., 60° C./75% RH) on crystal forms I and II
# [4] = Approximate solubility tests on crystal forms of acid addition salts of nepicastat in water (room temperature)
# [5] = Stability tests on crystal forms of acid addition salts: high-temperature test and accelerated test, 4 weeks; conditions: for stability under accelerated conditions: 40° C.±2° C./75% RH±5% RH; for stability under high temperature conditions: 60±2° C.
# [6] = Approximate solubility test of the free base of nepicastat; conditions: for solubility: thermodynamic from solid, approximate solubility
# Procedure: In order to select a suitable method for salt form screening, an approximate solubility test was conducted on the compound. The test method was as follows: about 4 mg of the free base of nepicastat was weighed, an appropriate volume of a solvent was added gradually thereto and shaken to observe whether the free base was dissolved, and the volumes of the solvent were recorded, including the volume that enabled complete dissolution and the previous volume of the solvent that was not able to completely dissolve the free base. For poor solubility, the total amount of the solvent added was no more than 4 mL. The approximate solubility thereof was calculated.
# [7] = Approximate solubility test on crystal forms of hydrochloride salt of nepicastat at room temperature; conditions: purified water
molecule,measurement,setting,value
"Cl.NCc1c[nH]c(=S)n1[C@H]1CCc2c(F)cc(F)cc2C1 [crystal form II of hydrochloride salt, hydrochloride salt of nepicastat]",stability in competitive experiment,[1]; ethanol-water mixed solutions with lower water activity (0.291-0.750),could exist stably
same,stability in competitive experiment,[1]; purified water,not as good as that of the crystal form I
same,hygroscopicity of the sample,"[2]; DVS, 0% RH to 80% RH",slight hygroscopicity
same,weight gain by hygroscopicity,"[2]; DVS, from 0% RH to 80% RH, 25° C.",about 0.453%
same,crystal form before and after the DVS test,[2]; XRPD before and after DVS,remained unchanged
same,crystal form stability (XRPD pattern),[3]; 40° C.,converted into the crystal form III
same,crystal form stability (XRPD pattern),"[3]; 40° C./75% RH, 15 days",the crystal form did not change
same,crystal form stability (XRPD pattern),"[3]; 60° C., 15 days",converted into the crystal form III
same,crystal form stability (XRPD pattern),"[3]; 60° C./75% RH, 15 days",the crystal form did not change
maleate salt of nepicastat [crystal form I of maleate salt],Approximate solubility,"[4]; in purified water, at room temperature, calculated by the salt",1.8~3.6 mg/mL
same,solubility in purified water compared with other candidate salt forms,"[4]; purified water, room temperature",slightly higher than that of other candidate salt forms
same,stability under accelerated conditions,[5],stable
same,stability under high temperature conditions,[5],stable
"NCc1c[nH]c(=S)n1[C@H]1CCc2c(F)cc(F)cc2C1.O=C(O)/C=C/C(=O)O [crystal form I of fumarate salt, fumarate salt of nepicastat]",stability under accelerated conditions,[5],stable
same,stability under high temperature conditions,[5],the impurities increased
"CS(=O)(=O)O.NCc1c[nH]c(=S)n1[C@H]1CCc2c(F)cc(F)cc2C1 [crystal form I of methanesulfonate salt, methanesulfonate salt of nepicastat]",stability under accelerated conditions,[5],stable
same,stability under high temperature conditions,[5],stable
"NCc1c[nH]c(=S)n1[C@H]1CCc2c(F)cc(F)cc2C1.NCc1c[nH]c(=S)n1[C@H]1CCc2c(F)cc(F)cc2C1.O=S(=O)(O)O [crystal form II of sulfate salt (1:0.5), sulfate salt of nepicastat]",stability under accelerated conditions,[5],stable
same,stability under high temperature conditions,[5],the impurities increased
"NCc1c[nH]c(=S)n1C1CCc2c(F)cc(F)cc2C1.O=C(O)CC(O)(CC(=O)O)C(=O)O (stereo not shown) [crystal form I of citrate salt, citrate salt of nepicastat]",stability under accelerated conditions,[5],stable
same,stability under high temperature conditions,[5],the impurities increased
"NCc1c[nH]c(=S)n1[C@H]1CCc2c(F)cc(F)cc2C1 [free base of nepicastat, Nepicastat]",approximate solubility (qualitative),"[6]; in dichloromethane:methanol (1:1, V:V), methanol, acetone and ethanol",higher solubility
same,solubility,"[6]; organic solvent or mixture, solvent 2-Methyltetrahydrofuran",< 1000 µg/mL
same,solubility,"[6]; organic solvent or mixture, solvent Acetone",4000 to 5000 µg/mL
same,solubility,"[6]; organic solvent or mixture, solvent Dichloromethane",< 1000 µg/mL
same,solubility,"[6]; organic solvent or mixture, solvent Dichloromethane:methanol (1:1)",19700 to 39300 µg/mL
same,solubility,"[6]; organic solvent or mixture, solvent Ethanol",2900 to 3400 µg/mL
same,solubility,"[6]; organic solvent or mixture, solvent Ethyl acetate",< 1000 µg/mL
same,solubility,"[6]; organic solvent or mixture, solvent Methanol",6900 to 10300 µg/mL
same,solubility,"[6]; organic solvent or mixture, solvent Methyl tert-butyl ether",< 1000 µg/mL
same,solubility,"[6]; organic solvent or mixture, solvent N-heptane",< 1000 µg/mL
same,solubility,[6]; solvent Purified water,< 1000 µg/mL
Cl.NCc1c[nH]c(=S)n1[C@H]1CCc2c(F)cc(F)cc2C1 [hydrochloride salt of nepicastat],solubility in purified water,[7],7400 µg/mL
"NCc1c[nH]c(=S)n1[C@H]1CCc2c(F)cc(F)cc2C1.O=S(=O)(O)O [crystal form III of sulfate salt (1:1), bisulfate salt of nepicastat]",stability under accelerated conditions,[5],stable
same,stability under high temperature conditions,[5],the impurities increased
"NCc1c[nH]c(=S)n1[C@H]1CCc2c(F)cc(F)cc2C1.O=P(O)(O)O [crystal form I of phosphate salt, phosphate salt of nepicastat]",stability under accelerated conditions,[5],stable
same,stability under high temperature conditions,[5],the impurities slightly increased
